The record followed here is ChEMBL document CHEMBL1122481, “Substituted (2-phenoxyphenyl)acetic acids with antiinflammatory activity. 2” (J Med Chem, 1983).

Data set [1] is filed under the species Rattus norvegicus. The experiment in a line: Potency measured relative to that of fenclofenac. In kind it is functional.
The test system of data set [2] is Rattus norvegicus. The experiment in a line: Antiinflammatory activity in rats, at a dose of 10 mg/kg po(significant toxicity at 100 mg/kg), by adjuvant-induced arthritis test. Type of data set: functional.
The test system of data set [3] is Rattus norvegicus. Put plainly: Antiinflammatory activity in rats, at a dose of 10 mg/kg po(significant toxicity at 100 mg/kg), activity expressed as minimum ulcerogenic dose(MUD) for a period of 24 hr; Value ranges from (200-400). Type of data set: functional.
The subject of data set [4] is Rattus norvegicus. The experiment in a line: Antiinflammatory activity in rats, at a dose of 10 mg/kg po, activity expressed as minimum ulcerogenic dose(MUD) for a period of 24 hr; Value ranges from (100-200). Type of data set: functional.
Data set [5] is described as follows: Median lethal dose using 10 rats per dose. In kind it is ADME, organism-based. The settings on record: rat, in vivo.
Data set [6] is filed under the species Rattus norvegicus. The experiment in a line: Potency measured relative to that of fenclofenac. In kind it is functional.
The subject of data set [7] is Rattus norvegicus. Put plainly: Antiinflammatory activity in rats, at a dose of 2 mg/kg po, using adjuvant-induced as arthritis test. Type of data set: functional.
Data set [8] deals with Rattus norvegicus. The experiment in a line: Antiinflammatory activity in rats, at a dose of 10 mg/kg po(showed some toxicity at this dose level), using adjuvant-induced arthritis test. In kind it is functional.
The subject of data set [9] is Rattus norvegicus. The experiment in a line: Antiinflammatory activity in rats, at a dose of 100 mg/kg po, using adjuvant-induced arthritis test. Type of data set: functional.
Data set [10] relates to Rattus norvegicus. Put plainly: Antiinflammatory activity in rats, at a dose of 100 mg/kg po, activity expressed as minimum ulcerogenic dose(MUD) for a period of 24 hr; Value ranges from (400-800). Type of data set: functional.
In data set [11] the test system is Rattus norvegicus. Put plainly: Antiinflammatory activity in rats, at a dose of 0.08 mg/kg po, using adjuvant-induced arthritis test. In kind it is functional.
The species entered for data set [12] is Rattus norvegicus. Put plainly: Antiinflammatory activity in rats, activity expressed as minimum ulcerogenic dose(MUD) for a period of 24 hr. Type of data set: functional.

The term Inhibition denotes the share of the control response that was lost under treatment. In the data set listed under Rattus norvegicus [1], `O=C(O)Cc1ccccc1Oc1cc(Cl)cc(Cl)c1Cl` came in with a Relative potency of 1.5. Also, the Inhibition with Rattus norvegicus [2] is reported as 21%.
In the data set filed under Rattus norvegicus [1], `O=C(O)Cc1ccccc1Oc1c(Cl)ccc(Cl)c1Cl` displayed a Relative potency of 14. The MUD in the data set on Rattus norvegicus [3] came out at 400 mg/kg. Also, the Inhibition with Rattus norvegicus [2] was 51%.
In general, LD50 refers to the dose at which mortality reaches 50%. A low value points to a more toxic substance. As a reminder, the inhibition in vivo is the relative decrease from the control value, in per cent. Take `O=C(O)Cc1ccccc1Oc1c(Cl)c(Cl)cc(Cl)c1Cl`: the MUD in the data set on Rattus norvegicus [4] worked out at 200 mg/kg. In addition, the LD50 in [5] was found to be 303 mg/kg. The same compound yielded a Relative potency in the data set listed under Rattus norvegicus [6] of 40. Moreover, the inhibition in vivo at 2 mg/kg in the data set on Rattus norvegicus [7] was determined as 38%. In the data set on Rattus norvegicus [8], the inhibition in vivo at 10 mg/kg came out at 44%.
As for `O=C(O)Cc1ccccc1Oc1ccc(Cl)cc1Cl` [FENCLOFENAC], in the data set on Rattus norvegicus [9], the inhibition in vivo at 100 mg/kg was 35%. Moreover, in the data set on Rattus norvegicus [10], the MUD was 800 mg/kg. In the data set filed under Rattus norvegicus [6], the Relative potency is listed as 1.
Take `O=C(O)Cc1ccccc1Nc1c(Cl)c(Cl)cc(Cl)c1Cl`: in the data set on Rattus norvegicus [11], the inhibition in vivo at 0.08 mg/kg was determined as 18%.
Regarding `O=C(O)Cc1ccccc1[S+]([O-])c1c(Cl)c(Cl)cc(Cl)c1Cl` (stereo unspecified), in the data set on Rattus norvegicus [11], the inhibition in vivo at 0.08 mg/kg came out at 19%.
The compound `O=C(O)Cc1ccccc1Oc1c(Cl)cc(Cl)c(Cl)c1Cl` displayed a Relative potency in the data set listed under Rattus norvegicus [1] of 8. Besides, the Inhibition in the data set on Rattus norvegicus [2] turned out to be 43%.
The compound `O=C(O)Cc1ccccc1Sc1c(Cl)c(Cl)cc(Cl)c1Cl` yielded a Relative potency in the data set listed under Rattus norvegicus [1] of 0.21. The inhibition in vivo at 0.08 mg/kg in the data set on Rattus norvegicus [11] is less than 22%.
For the compound `COc1ccc2c(c1)c(CC(=O)O)c(C)n2C(=O)c1ccc(Cl)cc1` [INDOMETHACIN], the 50% lethal dose (LD50) in [5] turned out to be 19.8 mg/kg. In the data set listed under Rattus norvegicus [12], this compound returned an MUD of 1.25 mg/kg.
